Assay results from publication PMC12066687 (Frontiers in Immunology, 2025).
Read-outs that look alike come from different tables or passages of the source.

Tests used:
VSV-EBOV-GP = experiment: microbe, parasite or virus in culture; format: cell-based, Ebola virus (EBOV/H.sap-tc/COD/76/Yambuku-Mayinga); settings: for inhibition at 0.2 µM: read-out: Inhibition% (200nM)
Vero cells = settings: for cytotoxicity: African green monkey
in vitro = settings: African green monkey
EBOV-GP = EBOV-GP (Zaire ebolavirus, UniProt Q05320); experiment: biochemical; format: binding, Zaire EBOV (strain Mayinga-76)
Chain of EBOV-GP (Q05320 33-650 limits assumed): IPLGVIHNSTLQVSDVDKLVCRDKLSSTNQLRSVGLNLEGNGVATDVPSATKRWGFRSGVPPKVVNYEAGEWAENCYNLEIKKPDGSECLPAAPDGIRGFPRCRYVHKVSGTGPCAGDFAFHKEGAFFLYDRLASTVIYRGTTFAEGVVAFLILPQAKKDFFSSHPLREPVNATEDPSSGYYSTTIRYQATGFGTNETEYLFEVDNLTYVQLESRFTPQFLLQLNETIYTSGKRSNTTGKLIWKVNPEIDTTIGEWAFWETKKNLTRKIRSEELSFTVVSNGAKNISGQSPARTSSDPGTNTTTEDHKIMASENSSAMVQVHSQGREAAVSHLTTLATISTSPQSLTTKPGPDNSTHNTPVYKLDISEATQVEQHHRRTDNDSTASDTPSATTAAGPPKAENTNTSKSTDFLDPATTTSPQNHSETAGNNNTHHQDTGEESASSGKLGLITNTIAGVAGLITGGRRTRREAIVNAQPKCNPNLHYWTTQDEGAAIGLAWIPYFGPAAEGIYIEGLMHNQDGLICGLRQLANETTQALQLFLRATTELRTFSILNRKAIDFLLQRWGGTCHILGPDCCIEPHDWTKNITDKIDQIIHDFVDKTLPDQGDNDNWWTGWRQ

VSV-LASV-GP = format: cell-based, Lassa virus (LASV) (Josiah)
VSV-G = format: cell-based, vesicular stomatitis virus

SMILES | CC50 (in vitro) | EC50 (VSV-EBOV-GP; Zaire ebolavirus, Vero) | SI (Selectivity index = CC50/EC50) (Vero cells) | further results
CC/C(=C(\c1ccccc1)c1ccc(OCCN(C)C)cc1)c1cccc(N=S(=O)(F)F)c1 [Compound 1] | – | – | – | EC50 (VSV-EBOV-GP; Zaire ebolavirus, Vero, 16 h): 380 nM; cytotoxicity (Vero cells): did not exhibit cytotoxicity up to 10 µM
CC/C(=C(\c1ccccc1)c1ccc(OCCN(C)C)cc1)c1cccc(NS(=O)(=O)NC2CCCOC2)c1 (centres unmarked) [Compound 2] | – | – | – | EC50 (VSV-EBOV-GP; Zaire ebolavirus, Vero, 16 h): 470 nM
CC/C(=C(\c1ccccc1)c1ccc(OCCN(C)C)cc1)c1cccc(NS(=O)(=O)NCc2ncon2)c1 [Compound 3] | – | – | – | EC50 (VSV-EBOV-GP; Zaire ebolavirus, Vero, 16 h): 550 nM
CC/C(=C(\c1ccccc1)c1ccc(OCCN(C)C)cc1)c1cccc(NS(=O)(=O)N[C@@H]2CCOC2)c1 [Compound 4R] | 15000 nM | 351 nM | 43 | cytotoxicity (Vero cells): did not show significant cytotoxicity below 10 µM; Kd (EBOV-GP): 6400 nM
CC/C(=C(\c1ccccc1)c1ccc(OCCN(C)C)cc1)c1cccc(NS(=O)(=O)N[C@H]2CCOC2)c1 [Compound 4S] | 14000 nM | 92 nM | 150 | inhibition of VSV-LASV-GP (VSV-LASV-GP): selective inhibition of VSV-EBOV-GP but not VSV-G or VSV-LASV-GP; inhibition of VLPs displaying VSV-G (VSV-G): selective inhibition of VSV-EBOV-GP but not VSV-G or VSV-LASV-GP; cytotoxicity (Vero cells): did not show significant cytotoxicity below 10 µM; Kd (EBOV-GP): 630 nM; affinity enhancement vs tamoxifen (EBOV-GP): 50 fold
CC/C(=C(\c1ccccc1)c1ccc(OCCN(C)C)cc1)c1cccc(NS(=O)(=O)NC2CCOC2)c1 (centres unmarked) [Compound 4] | – | 241 nM | – | EC50 (VSV-EBOV-GP): 240 nM
CC/C(=C(\c1ccccc1)c1ccc(OCCN(C)C)cc1)c1cccc(NS(=O)(=O)NC2COC2)c1 [Compound 5] | 6800 nM | 156 nM | 44 | –
CC/C(=C(\c1ccccc1)c1ccc(OCCN(C)C)cc1)c1cccc(NS(=O)(=O)NC2COCC2C)c1 (centres unmarked) [Compound 6] | 14000 nM | 201 nM | 70 | –
CC/C(=C(\c1ccccc1)c1ccc(OCCN(C)C)cc1)c1cccc(NS(=O)(=O)NC2(C)CCOC2)c1 (centres unmarked) [Compound 7] | 8400 nM | 268 nM | 31 | –
CC/C(=C(\c1ccccc1)c1ccc(OCCN(C)C)cc1)c1cccc(NS(=O)(=O)NC2CCN(C)C2)c1 (centres unmarked) [Compound 8] | 2000 nM | 145 nM | 14 | –
CC/C(=C(\c1ccccc1)c1ccc(OCCN(C)C)cc1)c1cccc(NS(=O)(=O)NC2CCN(C(C)C)C2)c1 (centres unmarked) [Compound 9] | 3400 nM | 790 nM | 4.3 | –
CC/C(=C(\c1ccccc1)c1ccc(OCCN(C)C)cc1)c1cccc(NS(=O)(=O)N[C@H]2CCN(C)C2)c1 [Compound 10] | 3000 nM | 664 nM | 4.5 | –
CC/C(=C(\c1ccccc1)c1ccc(OCCN(C)C)cc1)c1cccc(NS(=O)(=O)N[C@@H]2CCN(C)C2)c1 [Compound 11] | 3600 nM | 575 nM | 6.3 | –
CC/C(=C(\c1ccccc1)c1ccc(OCCN(C)C)cc1)c1cccc(NS(=O)(=O)NC2CCN(CC)C2)c1 (centres unmarked) [Compound 12] | 4000 nM | 841 nM | 4.8 | –
CC/C(=C(\c1ccccc1)c1ccc(OCCN(C)C)cc1)c1cccc(NS(=O)(=O)N[C@H]2CCN(C(CC)CC)C2)c1 [Compound 13] | 5300 nM | 813 nM | 6.5 | –
CCCN1CCC(NS(=O)(=O)Nc2cccc(/C(CC)=C(/c3ccccc3)c3ccc(OCCN(C)C)cc3)c2)C1 (centres unmarked) [Compound 14] | 3100 nM | 618 nM | 5.0 | –
CC/C(=C(\c1ccccc1)c1ccc(OCCN(C)C)cc1)c1cccc(NS(=O)(=O)NC2CCN(CCCO)C2)c1 (centres unmarked) [Compound 15] | 7700 nM | 1720 nM | 4.5 | –
CC/C(=C(\c1ccccc1)c1ccc(OCCN(C)C)cc1)c1ccc(NS(=O)(=O)NCc2ccn[nH]2)cc1 [Compound B02, CC/C(=C(\c1ccccc1)c1ccc(OCCN(C)C)cc1)c1ccc(NS(=O)(=O)NCc2ccn[nH]2)cc1] | – | – | – | inhibition at 0.2 µM (VSV-EBOV-GP; Zaire ebolavirus, Vero): 4.27%
CC/C(=C(\c1ccccc1)c1ccc(OCCN(C)C)cc1)c1ccc(N=S(=O)(F)N(C)Cc2ccn[nH]2)cc1 (centres unmarked) [Compound C02, CC/C(=C(\c1ccccc1)c1ccc(OCCN(C)C)cc1)c1ccc(N=S(=O)(F)N(C)Cc2ccn[nH]2)cc1] | – | – | – | inhibition at 0.2 µM (VSV-EBOV-GP; Zaire ebolavirus, Vero): 2.05%
CC/C(=C(\c1ccccc1)c1ccc(OCCN(C)C)cc1)c1ccc(NS(=O)(=O)NCc2n[nH]c(=O)[nH]2)cc1 [Compound D02, CC/C(=C(\c1ccccc1)c1ccc(OCCN(C)C)cc1)c1ccc(NS(=O)(=O)NCc2n[nH]c(=O)[nH]2)cc1] | – | – | – | inhibition at 0.2 µM (VSV-EBOV-GP; Zaire ebolavirus, Vero): -0.485%
CC/C(=C(\c1ccccc1)c1ccc(OCCN(C)C)cc1)c1ccc(N=S(=O)(F)N(C)Cc2n[nH]c(=O)[nH]2)cc1 (centres unmarked) [Compound E02, CC/C(=C(\c1ccccc1)c1ccc(OCCN(C)C)cc1)c1ccc(N=S(=O)(F)N(C)Cc2n[nH]c(=O)[nH]2)cc1] | – | – | – | inhibition at 0.2 µM (VSV-EBOV-GP; Zaire ebolavirus, Vero): 11%
CC/C(=C(\c1ccccc1)c1ccc(OCCN(C)C)cc1)c1ccc(NS(=O)(=O)NC(C)c2n[nH]c(=O)[nH]2)cc1 (centres unmarked) [Compound F02, CC/C(=C(\c1ccccc1)c1ccc(OCCN(C)C)cc1)c1ccc(NS(=O)(=O)NC(C)c2n[nH]c(=O)[nH]2)cc1] | – | – | – | inhibition at 0.2 µM (VSV-EBOV-GP; Zaire ebolavirus, Vero): 14.1%
CC/C(=C(\c1ccccc1)c1ccc(OCCN(C)C)cc1)c1ccccc1 [Tamoxifen, tamoxifen, reference compound] | – | – | – | inhibition of VSV-LASV-GP (VSV-LASV-GP): selective inhibition of VSV-EBOV-GP but not VSV-G or VSV-LASV-GP; inhibition of VLPs displaying VSV-G (VSV-G): selective inhibition of VSV-EBOV-GP but not VSV-G or VSV-LASV-GP
